Laboratory results: ChEMBL document CHEMBL1144736, “Novel inhibitors of 17beta-hydroxysteroid dehydrogenase type 1: templates for design” (Bioorg Med Chem, 2008)
pIC50: −log10 of the molar value. The source made the active and inactive calls. The calls are words filed in the database; no cut-off is given here.

Columns and labels:
Type in all cases: cell-based
[1] = biological target: T1, 17-beta-hydroxysteroid dehydrogenase type 1 (Homo sapiens, UniProt P14061); assay: Inhibition of 17beta-HSD1 expressed in intact human T47D cells after 30 mins
T1 sequence (P14061 whole entry): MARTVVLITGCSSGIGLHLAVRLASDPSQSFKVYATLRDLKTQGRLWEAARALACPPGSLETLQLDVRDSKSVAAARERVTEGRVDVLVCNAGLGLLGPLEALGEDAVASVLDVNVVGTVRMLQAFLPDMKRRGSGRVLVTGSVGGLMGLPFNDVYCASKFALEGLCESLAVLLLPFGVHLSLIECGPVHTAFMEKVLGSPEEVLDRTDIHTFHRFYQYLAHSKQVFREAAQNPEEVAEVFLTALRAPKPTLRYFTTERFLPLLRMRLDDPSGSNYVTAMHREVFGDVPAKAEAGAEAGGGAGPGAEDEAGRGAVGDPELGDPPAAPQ

[2] = biological target: T2, 17-beta-hydroxysteroid dehydrogenase type 1 (Homo sapiens) (UniProt P14061); assay: Inhibition of 17beta-HSD1 expressed in intact human T47D cells at 10 uM after 30 mins
T2 sequence (whole entry): T1 sequence (P14061 whole entry)

[3] = biological target: T3, 17-beta-hydroxysteroid dehydrogenase type 2 (Homo sapiens) (UniProt P37059); assay: Inhibition of 17beta-HSD2 expressed in intact human MDA-MB-231 cells at 10 uM after 3 hrs
T3 sequence (whole entry): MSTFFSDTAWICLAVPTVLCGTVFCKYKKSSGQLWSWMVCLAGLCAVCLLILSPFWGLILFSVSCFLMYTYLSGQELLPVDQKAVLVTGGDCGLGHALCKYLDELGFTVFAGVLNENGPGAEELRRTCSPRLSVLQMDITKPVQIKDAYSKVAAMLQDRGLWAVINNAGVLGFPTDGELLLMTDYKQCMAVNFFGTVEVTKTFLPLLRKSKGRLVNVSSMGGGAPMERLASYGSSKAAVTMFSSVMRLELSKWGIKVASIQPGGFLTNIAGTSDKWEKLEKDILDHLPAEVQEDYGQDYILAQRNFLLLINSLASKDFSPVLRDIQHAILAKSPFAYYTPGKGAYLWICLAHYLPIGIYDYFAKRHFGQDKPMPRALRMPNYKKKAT

[4] = biological target: T2, 17-beta-hydroxysteroid dehydrogenase type 1 (Homo sapiens); assay: Inhibition of 17beta-HSD1 expressed in intact human T47D cells at 1 uM after 30 mins

pIC50 [1]	inhibition [2] [%]	Activity [2]	Compound	further results
5.77	81	–	O=C1CCc2cc(-c3ccc(O)cc3)ccc21	inhibition [3]: 17%
–	–	inactive	COc1ccc(-c2ccc3c(c2)CCC3=O)cc1	–
–	–	inactive	O=C1CCc2cc(-c3ccccc3)ccc21	–
5.43	–	–	CC(=O)c1ccc(-c2ccc(O)cc2C)cc1	–
–	–	inactive	COc1ccc(-c2ccc(C(C)=O)cc2)cc1	–
–	51	–	CCc1cc(-c2ccc3c(c2)CCCC3=O)ccc1O	–
5.70	86	–	CCc1cc(-c2ccc3c(c2)CCC3=O)ccc1O	inhibition [3]: 48%
5.33	–	–	CCc1cc(-c2ccc3c(c2)CC(CC(=O)NCc2cccnc2)C3=O)ccc1O (stereo not drawn)	inhibition [4]: 39%
5.08	71	–	CCc1cc(-c2ccc3c(c2)CCCC3=O)ccc1OC	–
–	–	inactive	CCc1cc(-c2ccc3c(c2)CCC3=O)ccc1OC	–
5.43	97	–	CC(=O)c1ccc(-c2ccc(O)cc2)cc1	–
5.00	71	–	CCc1cc(-c2ccc(O)cc2)ccc1C(C)=O	–
–	56	–	COc1ccc(-c2ccc3c(c2)CCC3=O)cc1F	–

The remaining lines, values behind:

Compound	pIC50 [1]	inhibition [2] [%]	Activity [2]	further results
CCc1cc(-c2ccc(C(C)=O)cc2)ccc1OC	–	–	inactive	–
COc1ccc(-c2ccc(C(C)=O)cc2)c(C)c1	–	–	inactive	–
CC(=O)c1ccc(-c2ccc(O)cc2)c(C)c1	–	–	inactive	–
CCc1cc(-c2ccc(C(=O)CC(C)(C)C(=O)NCc3cccnc3)cc2)ccc1OC	–	–	–	inhibition [4]: 17%
CCc1cc2c(cc1O)CC[C@@H]1[C@@H]2CC[C@]2(C)C(=O)[C@@H](CC(=O)NCc3cccnc3)C[C@@H]12	7.57	–	–	–
CCc1cc(-c2ccc(C(=O)CCC(=O)NCc3ccccn3)cc2)ccc1O	–	–	–	Activity [4]: inactive
CC(=O)c1ccc2c(c1)Cc1cc(O)ccc1-2	5.32	86	–	–
CCc1cc(-c2ccc(C(=O)CC(C)(C)C(=O)NCCc3cccnc3)cc2)ccc1O	–	–	–	inhibition [4]: 15%
CCc1cc(-c2ccc(C(=O)CCC(=O)NCCO)cc2)ccc1O	–	–	–	inhibition [4]: 23%
CCc1cc(-c2ccc(C(=O)CCC(=O)NCc3cccnc3)cc2)ccc1O	5.43	–	–	inhibition [4]: 24%; inhibition [3]: 12%
CCc1cc(-c2ccc(C(=O)CCC(=O)NCCc3cccnc3)c(C)c2)ccc1O	–	–	–	inhibition [4]: 15%
CC(=O)c1ccc(-c2ccc3c(c2)OCO3)cc1	–	–	inactive	–
CCc1cc(-c2ccc(C(=O)CCC(=O)NCc3cccnc3)c(C)c2)ccc1O	–	–	–	inhibition [4]: 21%
CCc1cc(-c2ccc(C(=O)CC(C)(C)C(=O)NCc3cccnc3)cc2)ccc1O	5.74	–	–	inhibition [4]: 38%
O=C1CCc2cc(-c3ccc(O)c(F)c3)ccc21	5.54	75	–	inhibition [3]: 24%
CCc1cc(-c2ccc3c(c2)CC(CC(=O)NCc2cnc(C)cn2)C3=O)ccc1O (stereo not drawn)	–	–	–	Activity [4]: inactive
COc1ccc(-c2ccc3c(c2)CCCC3=O)cc1	–	–	inactive	–
CCc1cc(-c2ccc3c(c2)CC(CC(=O)NCc2ccccn2)C3=O)ccc1O (stereo not drawn)	–	–	–	Activity [4]: inactive
CCc1cc(-c2ccc(C(=O)CCC(=O)NCCc3cccnc3)cc2)ccc1O	–	–	–	inhibition [4]: 17%
COc1ccc(-c2ccc(C(C)=O)cc2C)cc1	–	–	inactive	–
COc1ccc2c(c1)Cc1cc(C(C)=O)ccc1-2	–	–	inactive	–
O=C1CCCc2cc(-c3ccc(O)cc3)ccc21	4.81	89	–	–
CCc1cc(-c2ccc(C(C)=O)cc2)ccc1O	5.27	73	–	inhibition [3]: 51%
